Experimental data: patent publication EP4635944A1, “2-AZABICYCLO[3.1.1]HEPTANE COMPOUND” (Daiichi Sankyo Company, Limited, priority 2022, dated 2024)

Tests used:
human OX2R = biological target: T1, human OX2R (Homo sapiens, UniProt O43614); assay: Evaluation of OX2R agonist activity (intracellular calcium, CHO-K1 cells with forced expression of human OX2R); format: cell-based; settings: CHO-K1 cells expressing human OX2R; 100% = 5 µM of the reference compound; read-out: hOX2R EC50
T1 construct: host or cells: CHO-K1 (Chinese Hamster Ovary K1)
T1 sequence (O43614 1-444): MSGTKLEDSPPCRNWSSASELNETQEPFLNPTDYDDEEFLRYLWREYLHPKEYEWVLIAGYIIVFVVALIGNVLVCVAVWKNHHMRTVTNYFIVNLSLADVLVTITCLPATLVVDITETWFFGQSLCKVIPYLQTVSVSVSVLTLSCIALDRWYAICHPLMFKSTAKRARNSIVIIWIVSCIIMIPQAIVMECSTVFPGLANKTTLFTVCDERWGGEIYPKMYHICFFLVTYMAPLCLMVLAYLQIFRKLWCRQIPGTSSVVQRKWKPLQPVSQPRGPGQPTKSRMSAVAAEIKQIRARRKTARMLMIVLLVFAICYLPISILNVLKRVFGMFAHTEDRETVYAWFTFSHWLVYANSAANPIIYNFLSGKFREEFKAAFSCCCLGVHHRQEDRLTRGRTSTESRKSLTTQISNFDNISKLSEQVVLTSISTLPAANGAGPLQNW
Method in brief: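 Cells seeded 7500/well, cultured 24 h, loaded with Fluo 4-AM (2.5 µg/mL final) plus probenecid for 30 min. Calcium response read as 480/540 nm excitation ratio; max–min signal 5–7 s after compound addition, normalized to buffer (0%) and 5 µM reference agonist (100%). EC50 from concentration series; 0.5% DMSO final.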

[1] = Evaluation of ERM production (GSH adduct detection in human liver microsomes); format: in vitro ADME; settings: test compound 500 µM, human liver microsomes 2 mg/mL, GSH/SI-GSH, 37°C for 60 minutes; negative = no metabolite GSH adduct pair peak
Method: Evaluation of ERM production from OX2R agonist
The test compound (final concentration was 500 µM, dissolved in DMSO/acetonitrile = 1/9), pooled human liver microsomes (final concentration was 2 mg/mL), L-glutathione reduced (GSH, final concentration was 0.5 mM), potassium phosphate buffer (pH 7.4, final concentration was 100 mM), and stable isotope labeled GSH (SI-GSH, final concentration was 0.5 mM) were admixed and preincubated at 37°C for 3 minutes. Thereafter, a mixed solution of glucose-6-phosphate (final concentration was 25 mM), β-nicotinamide adenine dinucleotide phosphate (final concentration was 0.25 mM), glucose-6-phosphate dehydrogenase (final concentration was 2 U/mL), and magnesium chloride (final concentration was 10 mM) was added, and incubation was performed at 37°C for 60 minutes. After the incubation, the reaction was stopped by adding a 2-fold volume of acetonitrile. A portion of the supernatant after centrifugation (about 1200 × g, 4°C, 15 minutes) was injected into a liquid chromatograph quadrupole time-of-flight mass spectrometer (Q-Tof) for analysis. The mass number of metabolites, GSH adduct and SI-GSH adduct, predicted from the chemical structural formula of the test compound was calculated, and the presence of the corresponding peaks in the measurement sample was checked. Peaks with the same retention time and approximately equal peak area of the detected peaks of the metabolites, GSH adduct and SI-GSH adduct, were extracted as pair peaks. The presence of a pair peak determined to be a metabolite GSH adduct was considered positive for ERM production potential, whereas the absence of such a peak was considered negative for ERM production potential.

[2] = Evaluation of metabolic stability in human liver microsomes; format: in vitro ADME; settings: for Human metabolic stability Residual ratio (%): test compound 1 µM, human liver microsomes 0.5 mg/mL, 30 minutes at 37°C; for metabolic stability compared to the corresponding compounds that were not deuterated: human liver microsomes, 30 minutes, deuterated at specific positions
Method: Evaluation of metabolic stability of OX2R agonist
The test compound (final concentration was 1 µM, dissolved in DMSO/acetonitrile = 1/99), pooled human liver microsomes (final concentration was 0.5 mg/mL), and sodium phosphate buffer (pH 7.4, final concentration was 100 mM) were admixed and preincubated at 37°C for 15 minutes. Thereafter, a mixed solution of glucose-6-phosphate (final concentration was 10 mM), glucose-6-phosphate dehydrogenase (final concentration was 1 U/mL), and magnesium chloride (final concentration was 3.3 mM) was added and a certain amount of the mixture was collected. Then, an acetonitrile/methanol mixed solution (75/25, v/v) containing a 4.5-fold volume of internal standard substances (final concentrations: phenacetin: 1 ng/mL, niflumic acid: 15 ng/mL, furosemide: 20 ng/mL) was added to stop the reaction (0 min sample). Subsequently, β-nicotinamide adenine dinucleotide phosphate (final concentration was 1 mM) was added, and after 30 minutes of incubation at 37°C, a certain amount of the mixture was collected, to which an acetonitrile/methanol mixed solution (75/25, v/v) containing a 4.5-fold volume of the internal standard substances was added to stop the reaction (30 min sample). For both samples, a portion of the supernatant after centrifugation (about 1200 × g, 4°C, 15 minutes) was injected into a liquid chromatograph tandem quadrupole mass spectrometer (LC-MS/MS) for analysis. The metabolic stability was evaluated by comparing the test compound/internal standard substance ratio of the 30 min sample with the 0 min sample and calculating the residual ratio of the test compound. […]

EC50 (human OX2R)	ERM production potential [1]	Human metabolic stability Residual ratio (%) [2]	SMILES	metabolic stability compared to the corresponding compounds that were not deuterated [2]
88 nM	negative		CC(C)(O)C(=O)N1C2CC(C2)C(NS(C)(=O)=O)C1Cc1cc(F)cc(-c2ccccc2)c1F (single isomer, unassigned) [Example 59, N-[(3S,4S)-3-[(2,5-Difluoro[biphenyl]-3-yl)methyl]-2-(2-hydroxy-2-methylpropanoyl)-2-azabicyclo[3.1.1]heptan-4-yl]methanesulfonamide or N-[(3R,4R)-3-[(2,5-difluoro[biphenyl]-3-yl)methyl]-2-(2-hydroxy-2-methylpropanoyl)-2-azabicyclo[3.1.1]heptan-4-yl]methanesulfonamide]	
70 nM	negative		CC(C)(O)C(=O)N1C2CC(C2)C(NS(C)(=O)=O)C1Cc1cc(F)cc(-c2cccc(Cl)c2)c1F (single isomer, unassigned) [Example 67, N-[(3S,4S)-3-[(3'-Chloro-2,5-difluoro[biphenyl]-3-yl)methyl]-2-(2-hydroxy-2-methylpropanoyl)-2-azabicyclo[3.1.1]heptan-4-yl]methanesulfonamide or N-[(3R,4R)-3-[(3'-chloro-2,5-difluoro[biphenyl]-3-yl)methyl]-2-(2-hydroxy-2-methylpropanoyl)-2-azabicyclo[3.1.1]heptan-4-yl]methanesulfonamide]	
39 nM		25%	CCS(=O)(=O)NC1C(Cc2cc(F)cc(-c3ccccc3)c2F)N(C(=O)[C@@H](C)O)C2CC1(F)C2 (single isomer, unassigned) [Example 91]	
20 nM	negative		[2H]C([2H])([2H])C([2H])(O)C(=O)N1C2CC(C2)C(NS(=O)(=O)CC)C1Cc1cc(F)cc(-c2ccccc2)c1F (single isomer, unassigned) [Example 92, N-{3-[(2,5-Difluoro[biphenyl]-3-yl)methyl]-2-[2-hydroxy(^2H4)propanoyl]-2-azabicyclo[3.1.1]heptan-4-yl}ethanesulfonamide]	
19 nM		52%	[2H]C([2H])([2H])C([2H])(O)C(=O)N1C2CC(F)(C2)C(NS(=O)(=O)CC)C1Cc1cc(F)cc(-c2ccccc2)c1F (single isomer, unassigned) [Example 95, N-{3-[(2,5-Difluoro[biphenyl]-3-yl)methyl]-5-fluoro-2-[2-hydroxy(^2H4)propanoyl]-2-azabicyclo[3.1.1]heptan-4-yl}ethanesulfonamide]	improved metabolic stability
24 nM		34%	C[C@@H](O)C(=O)N1C2CC(C2)[C@H](NS(C)(=O)=O)[C@@H]1Cc1cccc(-c2ccccc2)c1F [Example 25, N-{(3S,4S)-3-[(2-Fluoro[biphenyl]-3-yl)methyl]-2-[(2R)-2-hydroxypropanoyl]-2-azabicyclo[3.1.1]heptan-4-yl}methanesulfonamide]	
19 nM		49%	C[C@@H](O)C(=O)N1C2CC(F)(C2)[C@H](NS(C)(=O)=O)[C@@H]1Cc1cccc(-c2ccccc2)c1F [Example 53, N-{(3S,4R)-5-Fluoro-3-[(2-fluoro[biphenyl]-3-yl)methyl]-2-[(2R)-2-hydroxypropanoyl]-2-azabicyclo[3.1.1]heptan-4-yl}methanesulfonamide]	
22 nM		38%	C[C@@H](O)C(=O)N1C2CC(F)(C2)[C@H](NS(C)(=O)=O)[C@@H]1Cc1cc(F)cc(-c2ccccc2)c1F [Example 63, N-{(3S,4R)-3-[(2,5-Difluoro[biphenyl]-3-yl)methyl]-5-fluoro-2-[(2R)-2-hydroxypropanoyl]-2-azabicyclo[3.1.1]heptan-4-yl}methanesulfonamide]	
50 nM			CS(=O)(=O)N[C@H]1C2CC(C2)N(C(=O)C2(CO)CC2)[C@H]1Cc1cccc(-c2ccccc2)c1F [Example 73, N-[(3S,4S)-3-[(2-Fluoro[biphenyl]-3-yl)methyl]-2-{[1-(hydroxymethyl)cyclopropyl]carbonyl}-2-azabicyclo[3.1.1]heptan-4-yl]methanesulfonamide]	
78 nM			CS(=O)(=O)N[C@H]1C2CC(C2)N(C(=O)[C@H](O)CF)[C@H]1Cc1cccc(-c2ccccc2)c1F [Example 75, N-{(3S,4S)-3-[(2-Fluoro[biphenyl]-3-yl)methyl]-2-[(2S)-3-fluoro-2-hydroxypropanoyl]-2-azabicyclo[3.1.1]heptan-4-yl}methanesulfonamide]	
69 nM			CS(=O)(=O)N[C@@H]1[C@H](Cc2cccc(-c3ccccc3)c2F)N(C(=O)[C@@H]2CC2(F)F)C2CC1(F)C2 [Example 78, N-{(3S,4R)-2-{[(1S)-2,2-Difluorocyclopropyl]carbonyl}-5-fluoro-3-[(2-fluoro[biphenyl]-3-yl)methyl]-2-azabicyclo[3.1.1]heptan-4-yl}methanesulfonamide]	
40 nM			CS(=O)(=O)N[C@@H]1[C@H](Cc2cc(F)cc(-c3ccccc3)c2F)N(C(=O)[C@H](O)C(F)(F)F)C2CC1(F)C2 [Example 79, N-{(3S,4R)-3-[(2,5-Difluoro[biphenyl]-3-yl)methyl]-5-fluoro-2-[(2S)-3,3,3-trifluoro-2-hydroxypropanoyl]-2-azabicyclo[3.1.1]heptan-4-yl}methanesulfonamide]	
23 nM			CC(C(=O)N1C2CC(C2)[C@H](NS(C)(=O)=O)[C@@H]1Cc1cccc(-c2ccccc2)c1F)n1cccn1 (stereo partly drawn) [Example 93, N-{(3S,4S)-3-[(2-Fluoro[biphenyl]-3-yl)methyl]-2-[2-(1H-pyrazol-1-yl)propanoyl]-2-azabicyclo[3.1.1]heptan-4-yl}methanesulfonamide]	

SMILES	EC50 (human OX2R)	ERM production potential [1]	Human metabolic stability Residual ratio (%) [2]	metabolic stability compared to the corresponding compounds that were not deuterated [2]
[2H]C([2H])([2H])[C@@]([2H])(O)C(=O)N1C2CC(F)(C2)[C@H](NS(=O)(=O)CC)[C@@H]1Cc1cccc(-c2ccccc2)c1F [Example 90, N-{(3S,4R)-5-Fluoro-3-[(2-fluoro[biphenyl]-3-yl)methyl]-2-[(2R)-2-hydroxy(^2H4)propanoyl]-2-azabicyclo[3.1.1]heptan-4-yl}ethanesulfonamide]	21 nM			
[2H][C@](C)(O)C(=O)N1C2CC(F)(C2)[C@H](NS(C)(=O)=O)[C@@H]1Cc1cccc(-c2ccccc2)c1F [Example 99, N-{(3S,4R)-5-Fluoro-3-[(2-fluoro[biphenyl]-3-yl)methyl]-2-[(2R)-2-hydroxy(2-^2H)propanoyl]-2-azabicyclo[3.1.1]heptan-4-yl}methanesulfonamide]	27 nM		78%	improved metabolic stability
[2H][C@](C)(O)C(=O)N1C2CC(F)(C2)[C@H](NS(C)(=O)=O)[C@@H]1Cc1cc(F)cc(-c2ccccc2)c1F [Example 100, N-{(3S,4R)-3-[(2,5-Difluoro[biphenyl]-3-yl)methyl]-5-fluoro-2-[(2R)-2-hydroxy(2-^2H)propanoyl]-2-azabicyclo[3.1.1]heptan-4-yl}methanesulfonamide]	43 nM		70%	improved metabolic stability
